Results: publication PMC10023972, “Saturated fatty acid– and/or monounsaturated fatty acid–containing phosphatidic acids selectively interact with heat shock protein 27” (The Journal of Biological Chemistry, 2023)

Molecular target: T1, HSP27 (heat shock protein 27, HSPβ1; 6×His-HSP27) (Homo sapiens, UniProt P04792)
T1 construct: gene HSPB1; full length (205 aa), N-terminal 6×His tag (pET-28a), E. coli Rosetta 2 (DE3), Ni-NTA, ~30 kDa band; large oligomer (more than octamer)
Assay: liposome co-sedimentation (ultracentrifugation), Western blot densitometry
Format: binding
Settings: unreliable; extrapolated beyond the 0-25 μM range; PS in liposomes (PS/egg PC/cholesterol 20/50/30 mol%), 0.1 μM protein, pH 7.4, 4 °C

T1 sequence (P04792 whole entry): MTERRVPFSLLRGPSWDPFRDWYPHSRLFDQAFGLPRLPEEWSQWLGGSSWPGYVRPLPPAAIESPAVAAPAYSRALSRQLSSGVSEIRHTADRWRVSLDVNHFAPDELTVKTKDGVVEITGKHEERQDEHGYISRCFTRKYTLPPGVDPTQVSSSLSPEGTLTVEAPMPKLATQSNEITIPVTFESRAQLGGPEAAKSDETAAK

CCCCCCCCCCCCCCCC(=O)OC[C@H](COP(=O)(O)OC[C@H](N)C(=O)O)OC(=O)CCCCCCCCCCCCCCC [16:0/16:0-PS, 1,2-dipalmitoyl-sn-glycero-3-phosphoserine]
extrapolated Kd: ~ 100 μM
